Results from patent US9133235B2, “Macrocyclic antagonists of the motilin receptor for treatment of gastrointestinal dysmotility disorders” (Ocera Therapeutics, Inc., priority 2006, dated 2015).
Where two headings read alike, the source gives them in different places.

How the values were obtained:
[1] = system: strips of rabbit duodenum; assay: Rabbit duodenum contractility assay; conditions: pA2 from Schild plot, motilin dose response after 15 minute incubation
Method: D. Rabbit Duodenum Contractility Assay
Evaluation of compounds of the invention for ex vivo activity was conducted on strips of rabbit duodenum according to literature methods. (Van Assche, G.; Depoortere, I.; Thijs, T.; Janssens, J. J.; Peeters, T. L. Eur. J. Pharmacol. 1997, 337, 267-274; Matthijs, G.; Peeters, T. L.; Vantrappen, G. Naunyn-Schmiedeberg's Arch. Pharmacol. 1989, 339, 332-339.) Related methods can also be employed for this type of study. (Tomomasa, T.; Yagi, H.; Kimura, S.; Snape, W. J., Jr.; Hyman, P. E. Pediatric Res. 1989, 26, 458-461; Takanishi, H.; Yogo, K.; Ozaki, M.; Akima, M.; Koga, H.; Nabata, H. J. Pharm. Exp. Ther. 1995, 273, 624-628.)
Duodenal segments were vertically suspended in organ chambers of 10 mL filled with Krebs buffer and connected to an isotonic force transducer, with a preload of 1 g. After a stabilization period, the muscle strips were challenged with 10^−4 M acetylcholine and washed. This was repeated until a stable maximal contraction was obtained (2-3 times), with an interval of at least 20 minutes.
After a stable base line was reached, test compounds were added to the bath. After a 15 minute incubation, a dose response to motilin was recorded by adding logarithmically increasing concentrations of motilin to the bath (final concentration 10^−9 to 10^−6 M). A blank experiment (no test compound present) was also performed. At the end of the dose response curve, a supramaximal dose of acetylcholine (10^−4 M) was given and this response was used as a reference (100% contraction).
The results of experiments at different concentrations of test compound were combined and analyzed to derive the pA2 value from the Schild plot.

CYP3A4 = target: T1, CYP3A4 (Homo sapiens, UniProt P08684); assay: Cytochrome P450 inhibition, CYP3A4; type: in vitro ADME; conditions: Supersomes
T1 construct: purchased BD Gentest, Becton-Dickinson (Supersomes); host or cells: insect cells (microsomes)
Description: (§1) F. Assay for Cytochrome P450 Inhibition
(§2) Cytochrome P450 enzymes are implicated in the phase I metabolism of drugs. The majority of drug-drug interactions are metabolism-based and, moreover, these interactions typically involve inhibition of cytochrome P450s. Six CYP450 enzymes (CYP1A2, CYP2C8, CYP2C9, CYP2C19, CYP2D6 and CYP3A4) appear to be commonly responsible for the metabolism of most drugs and the associated drug-drug interactions. Assays to determine the binding of compounds of the invention to the various metabolically important isoforms of cytochrome P450 metabolizing enzymes are commercially available, for example NoAb BioDiscoveries (Mississaugua, ON, Canada) and Absorption Systems (Exton, Pa., USA). As well, a number of appropriate methods have been described or reviewed in the literature. (White, R. E. Ann. Rev. Pharmacol. Toxicol. 2000, 40, 133-157; Li, A. P. Drug. Disc. Today 2001, 6, 357-366; Turpeinen, M.; Korhonen, L. E. Tolonen, A.; et al. Eur. J. Pharm. Sci. 2006, 29, 130-138.)
(§3) The concentration of the inhibitor or test compound that inhibited metabolite formation by 50% (IC50) was calculated by non-linear regression analysis of the % inhibition vs. log concentration (M) curve.

CYP2A6 = target: T2, CYP2A6 (Homo sapiens, UniProt P11509); assay: Cytochrome P450 inhibition, CYP2A6; type: in vitro ADME; conditions: Supersomes; read-out: IC50 (μM) 2A6
T2 construct: purchased BD Gentest, Becton-Dickinson (Supersomes); host or cells: insect cells (microsomes)
T2 sequence (P11509 1-494): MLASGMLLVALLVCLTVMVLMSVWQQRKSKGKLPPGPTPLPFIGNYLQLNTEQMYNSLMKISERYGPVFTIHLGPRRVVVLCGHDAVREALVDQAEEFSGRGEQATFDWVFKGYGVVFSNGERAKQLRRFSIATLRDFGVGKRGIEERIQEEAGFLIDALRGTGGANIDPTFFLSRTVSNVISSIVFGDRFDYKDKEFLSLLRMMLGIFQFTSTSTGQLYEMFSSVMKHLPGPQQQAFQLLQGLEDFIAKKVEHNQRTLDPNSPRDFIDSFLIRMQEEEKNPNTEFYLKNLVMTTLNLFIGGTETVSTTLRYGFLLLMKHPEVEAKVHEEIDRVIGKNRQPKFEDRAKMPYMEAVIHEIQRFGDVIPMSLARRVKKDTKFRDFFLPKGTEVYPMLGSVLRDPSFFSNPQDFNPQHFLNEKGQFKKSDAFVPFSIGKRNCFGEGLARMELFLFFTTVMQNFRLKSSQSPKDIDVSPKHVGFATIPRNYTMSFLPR
Description: as §1, §2, §3

CYP2B6 = target: T3, CYP2B6 (Homo sapiens, UniProt P20813); assay: Cytochrome P450 inhibition, CYP2B6; type: in vitro ADME; conditions: Supersomes; read-out: IC50 (μM) 2B6
T3 construct: purchased BD Gentest, Becton-Dickinson (Supersomes); host or cells: insect cells (microsomes)
T3 sequence (P20813 1-491): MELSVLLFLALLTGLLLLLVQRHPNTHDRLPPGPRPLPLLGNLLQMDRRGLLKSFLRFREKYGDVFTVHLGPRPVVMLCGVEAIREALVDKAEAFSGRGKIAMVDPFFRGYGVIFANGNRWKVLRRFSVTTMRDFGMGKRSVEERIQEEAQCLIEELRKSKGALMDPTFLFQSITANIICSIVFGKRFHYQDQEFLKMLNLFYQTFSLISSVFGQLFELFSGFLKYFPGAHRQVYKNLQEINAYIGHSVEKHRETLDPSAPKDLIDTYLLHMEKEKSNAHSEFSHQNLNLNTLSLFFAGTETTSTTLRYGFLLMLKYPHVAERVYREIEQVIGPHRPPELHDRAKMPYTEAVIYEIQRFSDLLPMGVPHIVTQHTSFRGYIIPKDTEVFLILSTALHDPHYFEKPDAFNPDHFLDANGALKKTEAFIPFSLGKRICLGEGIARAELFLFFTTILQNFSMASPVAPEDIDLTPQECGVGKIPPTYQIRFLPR
Description: as §1, §2, §3

CYP2C9 = target: T4, CYP2C9 (Homo sapiens, UniProt P11712); assay: Cytochrome P450 inhibition, CYP2C9; type: in vitro ADME; conditions: Supersomes; read-out: IC50 (μM) 2C9
T4 construct: purchased BD Gentest, Becton-Dickinson (Supersomes); host or cells: insect cells (microsomes)
Description: as §1, §2, §3

CYP2D6 = target: T5, CYP2D6 (Homo sapiens, UniProt P10635); assay: Cytochrome P450 inhibition, CYP2D6; type: in vitro ADME; conditions: Supersomes; read-out: IC50 (μM) 2D6
T5 construct: purchased BD Gentest, Becton-Dickinson (Supersomes); host or cells: insect cells (microsomes)
Description: as §1, §2, §3

[2] = substrate BFC, read-out: IC50 (μM) 3A4 (BFC)
[3] = substrate BQ, read-out: IC50 (μM) 3A4 (BQ)

T1 sequence (P08684 whole entry): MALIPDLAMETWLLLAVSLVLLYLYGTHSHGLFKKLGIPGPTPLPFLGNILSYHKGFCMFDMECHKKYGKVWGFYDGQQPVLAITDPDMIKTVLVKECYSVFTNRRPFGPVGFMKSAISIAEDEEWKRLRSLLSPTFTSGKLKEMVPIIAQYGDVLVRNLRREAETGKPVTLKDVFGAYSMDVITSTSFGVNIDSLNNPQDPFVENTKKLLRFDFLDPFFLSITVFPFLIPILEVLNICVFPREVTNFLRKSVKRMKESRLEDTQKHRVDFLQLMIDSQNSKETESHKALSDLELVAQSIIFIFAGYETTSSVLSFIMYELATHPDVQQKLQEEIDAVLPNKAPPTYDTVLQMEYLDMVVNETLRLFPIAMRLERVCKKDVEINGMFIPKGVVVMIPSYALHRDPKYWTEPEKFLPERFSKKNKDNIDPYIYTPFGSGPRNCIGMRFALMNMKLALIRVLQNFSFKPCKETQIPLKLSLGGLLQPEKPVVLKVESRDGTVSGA
T4 sequence (P11712 whole entry): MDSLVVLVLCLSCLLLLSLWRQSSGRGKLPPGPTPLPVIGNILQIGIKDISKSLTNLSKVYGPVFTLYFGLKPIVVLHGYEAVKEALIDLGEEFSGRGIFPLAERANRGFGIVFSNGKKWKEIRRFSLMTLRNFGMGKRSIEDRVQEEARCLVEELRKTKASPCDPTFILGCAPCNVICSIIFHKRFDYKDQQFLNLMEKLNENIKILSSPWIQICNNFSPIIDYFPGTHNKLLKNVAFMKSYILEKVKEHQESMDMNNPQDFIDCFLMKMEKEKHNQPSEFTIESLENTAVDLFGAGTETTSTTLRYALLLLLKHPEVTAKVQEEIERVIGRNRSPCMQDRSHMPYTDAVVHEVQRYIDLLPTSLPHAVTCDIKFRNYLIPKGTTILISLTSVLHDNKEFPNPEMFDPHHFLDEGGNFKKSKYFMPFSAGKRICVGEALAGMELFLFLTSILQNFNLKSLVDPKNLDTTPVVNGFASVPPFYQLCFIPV
T5 sequence (P10635 whole entry): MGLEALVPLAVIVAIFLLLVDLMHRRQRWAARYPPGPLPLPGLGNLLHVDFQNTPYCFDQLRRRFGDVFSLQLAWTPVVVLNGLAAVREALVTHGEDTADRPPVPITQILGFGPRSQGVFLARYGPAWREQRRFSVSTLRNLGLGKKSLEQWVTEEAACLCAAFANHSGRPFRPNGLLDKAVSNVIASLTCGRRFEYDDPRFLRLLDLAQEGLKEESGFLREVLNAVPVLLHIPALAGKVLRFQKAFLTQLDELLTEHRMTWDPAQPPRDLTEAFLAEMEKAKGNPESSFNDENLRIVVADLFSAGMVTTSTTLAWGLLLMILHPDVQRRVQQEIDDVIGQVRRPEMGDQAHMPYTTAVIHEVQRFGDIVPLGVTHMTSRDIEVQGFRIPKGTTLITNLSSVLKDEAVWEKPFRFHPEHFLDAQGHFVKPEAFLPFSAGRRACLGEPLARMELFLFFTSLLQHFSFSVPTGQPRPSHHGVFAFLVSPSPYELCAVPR

| Compound | Contractile Potency (pA2) [1] | IC50 (CYP3A4; [2]) [µM] | IC50 (CYP3A4; [3]) [µM] | IC50 (CYP2A6) [µM] | IC50 (CYP2B6) [µM] | IC50 (CYP2C9) [µM] | IC50 (CYP2D6) [µM] |
| --- | --- | --- | --- | --- | --- | --- | --- |
| CC(C)[C@H]1NC(=O)[C@@H](Cc2cccc(C(F)(F)F)c2)NCCOc2ccccc2CCCNC(=O)[C@H](CN(C)C)NC1=O [Compound 502] | 7.92 |  |  |  |  |  |  |
| CCC[C@@H]1NC(=O)[C@@H](C(C)C)NC(=O)[C@@H](Cc2cccc(F)c2)N[C@@H](C)COc2ccccc2CCCNC1=O [Compound 551] | 8.29 | 2.37 | 10.4 | > 100 | > 100 | 26.9 | 30.1 |
| CCC[C@@H]1NC(=O)[C@@H](C(C)C)NC(=O)[C@@H](Cc2ccc(O)c(C(C)(C)C)c2)NCCOc2ccccc2CCCNC1=O [Compound 553] | 8.71 | 0.0192 | 3.48 | > 100 | > 100 | 44.5 | 80.8 |
